In ChEMBL document CHEMBL1862790, “Optimisation of fenarimol series for the treatment of Chagas disease”:

What was measured:
[1] = test system: Trypanosoma cruzi; test: microbe, parasite or virus in culture; type: functional, Tulahuen LacZ, Clone C4; details: Trypanosoma cruzi, Tulahuen LacZ, Clone C4
[2] = DNDI: Cytotoxicity against L-6 rat myoblasts from skeletal muscle cells; details: L6 rat skeletal muscle myoblast cells, IC50
[3] = test system: Trypanosoma cruzi; test: microbe, parasite or virus in culture; type: functional, organism-based, Tulahuen LacZ, Clone C4; details: Trypanosoma cruzi, Tulahuen LacZ, Clone C4

SMILES	IC90 [1]	IC50 [3]	IC50 [2]
Cc1nc(C(=O)NC2CCN(C(c3ccc(C(F)(F)F)cc3)c3cccnc3)CC2)co1 (centres undefined)	44 nM	19.5 nM	56400 nM
CC(C)(C)NC(=O)N1CCC(NC(c2ccc(C(F)(F)F)cc2)c2cncs2)CC1 (centres undefined)	128 nM	68 nM	> 100000 nM
Cc1nocc1C(=O)NC1CCN(C(c2ccc(C(F)(F)F)cc2)c2cccnc2)CC1 (centres undefined)	176 nM	15.5 nM	65300 nM
N#Cc1ccccc1N1CCC(NC(c2cccnc2)c2ccc(Cl)cc2F)CC1 (centres undefined)	24.9 nM	7.48 nM	39900 nM
Cc1cc(C(=O)NC2CCN(C(c3ccc(C#N)cc3)c3cccnc3)CC2)nn1C (centres undefined)	962 nM	260 nM	> 100000 nM
Cc1nc(C(=O)NC2CCN(C(c3ccc(C(F)(F)F)cc3)c3cccnc3)CC2)cs1 (centres undefined)	41 nM	17.5 nM	43800 nM
OC(c1ccc(C(F)(F)F)cc1)(c1cncc(Cl)c1)c1ccc(Cl)cc1F (centres undefined)	> 1000 nM	> 1000 nM	78600 nM
O=C(c1ccccc1)N1CC(NC(c2ccc(C(F)(F)F)cc2)c2cccnc2)C1 (centres undefined)	720 nM	189 nM	83800 nM
CCn1nc(C)cc1C(=O)NC1CCN(C(c2ccc(C#N)cc2)c2cccnc2)CC1 (centres undefined)	934 nM	504 nM	> 100000 nM
N#Cc1ccc(C(c2cccnc2)N2CCC(NC(=O)c3cc[nH]n3)CC2)cc1 (centres undefined)	917 nM	448 nM	> 100000 nM
Cc1cc(C(=O)NC2CCN(C(c3ccc(C(F)(F)F)cc3)c3cccnc3)CC2)n(C)n1 (centres undefined)	28.5 nM	12 nM	54600 nM
FC(F)(F)c1ccc(C(NC2CCN(c3ncccn3)CC2)c2cscn2)cc1 (centres undefined)	> 1000 nM	> 1000 nM	88100 nM
O=C(c1ccccc1)N1CC(CNC(c2ccc(C(F)(F)F)cc2)c2cccnc2)C1 (centres undefined)	142 nM	67 nM	> 100000 nM
N#Cc1ccnc(N2CCC(NC(c3ccc(C(F)(F)F)cc3)c3cccnc3)CC2)n1 (centres undefined)	120 nM	31 nM	49700 nM
CC(C)(C)OC(=O)N1CC(CNC(c2ccc(C(F)(F)F)cc2)c2cccnc2)C1 (centres undefined)	332 nM	122 nM	> 100000 nM
Fc1cc(Cl)ccc1C(NC1CCN(c2c(F)cccc2F)CC1)c1cccnc1 (centres undefined)	33.5 nM	12.5 nM	56300 nM

SMILES	IC90 [1]	IC50 [3]	IC50 [2]
Cc1n[nH]c(C)c1C(=O)NC1CCN(C(c2ccc(C#N)cc2)c2cccnc2)CC1 (centres undefined)	518 nM	185 nM	> 100000 nM
Cn1cc(C(=O)NC2CCN(C(c3ccc(C#N)cc3)c3cccnc3)CC2)c(C(F)(F)F)n1 (centres undefined)	77.5 nM	28.5 nM	> 100000 nM
FC(F)(F)c1ccc(C(NC2CN(c3ncccn3)C2)c2cccnc2)cc1 (centres undefined)	756 nM	115 nM	> 100000 nM
O=C(c1ccccc1)N1CCC(NC(c2ccc(C(F)(F)F)cc2)c2cncs2)CC1 (centres undefined)	106 nM	33 nM	76100 nM
CC(C)(C)OC(=O)N1CC(NC(c2ccc(C(F)(F)F)cc2)c2cccnc2)C1 (centres undefined)	702 nM	95 nM	62500 nM
Cn1cc(C(=O)NC2CCN(C(c3ccc(C#N)cc3)c3cccnc3)CC2)cn1 (centres undefined)	300 nM	169 nM	54300 nM
OC(c1ccc(C(F)(F)F)cc1)(c1cncc(F)c1)c1ccc(Cl)cc1F (centres undefined)	422 nM	194 nM	51400 nM
FC(F)(F)c1ccc(C(NC2CCN(c3ncccn3)CC2)c2cncs2)cc1 (centres undefined)	64 nM	20 nM	76700 nM
COc1cncc(C(O)(c2ccc(C(F)(F)F)cc2)c2ccc(Cl)cc2F)c1 (centres undefined)	318 nM	122 nM	67400 nM
N#Cc1ccccc1N1CCC(NC(c2ccc(C(F)(F)F)cc2)c2cccnc2)CC1 (centres undefined)	20.5 nM	7 nM	52300 nM
Cc1cc(C(=O)NC2CCN(C(c3ccc(C#N)cc3)c3cccnc3)CC2)n(C(C)(C)C)n1 (centres undefined)	220 nM	62 nM	> 100000 nM
FC(F)(F)c1ccc(C(NC2CCN(c3ccccc3C(F)(F)F)CC2)c2cccnc2)cc1 (centres undefined)	31.5 nM	9 nM	45800 nM
OC(c1cccnc1)(c1cncc(F)c1)c1ccc(Cl)cc1F (centres undefined)	868 nM	228 nM	> 100000 nM
Cn1ccnc1C(=O)NC1CCN(C(c2ccc(C#N)cc2)c2cccnc2)CC1 (centres undefined)	482 nM	239 nM	> 100000 nM
CC(C)(C)C(=O)N1CCC(NC(c2ccc(C(F)(F)F)cc2)c2cncs2)CC1 (centres undefined)	94 nM	34 nM	> 100000 nM
Cc1cc(C(=O)NC2CCN(C(c3ccc(C(F)(F)F)cc3)c3cccnc3)CC2)n(C(C)(C)C)n1 (centres undefined)	26.5 nM	13.5 nM	> 100000 nM

The next lines start with results.

IC90 [1]	IC50 [3]	SMILES	IC50 [2]
28 nM	9 nM	Cc1noc(C)c1C(=O)NC1CCN(C(c2ccc(C(F)(F)F)cc2)c2cccnc2)CC1 (centres undefined)	> 100000 nM
516 nM	140 nM	Cc1noc(C)c1C(=O)N1CCC(NC(c2ccc(C(F)(F)F)cc2)c2cncs2)CC1 (centres undefined)	> 100000 nM
101 nM	29 nM	Cc1cnc(N2CCC(NC(c3ccc(C(F)(F)F)cc3)c3cccnc3)CC2)s1 (centres undefined)	59900 nM
208 nM	81.5 nM	Cn1ccnc1C(=O)N1CCC(NC(c2ccc(C(F)(F)F)cc2)c2cccnc2)CC1 (centres undefined)	> 100000 nM
268 nM	66.5 nM	Cc1cc(C(=O)N2CCC(NC(c3ccc(C(F)(F)F)cc3)c3cccnc3)CC2)nn1C (centres undefined)	58600 nM
206 nM	70.5 nM	CCn1nc(C)cc1C(=O)N1CCC(NC(c2ccc(C(F)(F)F)cc2)c2cccnc2)CC1 (centres undefined)	> 100000 nM
553 nM	186 nM	Cc1ncsc1C(=O)N1CC(NC(c2ccc(C(F)(F)F)cc2)c2cccnc2)C1 (centres undefined)	> 100000 nM
570 nM	294 nM	O=C(c1cc[nH]n1)N1CCC(NC(c2ccc(C(F)(F)F)cc2)c2cccnc2)CC1 (centres undefined)	> 100000 nM
150 nM	26.5 nM	Cc1n[nH]c(C)c1C(=O)N1CCC(NC(c2ccc(C(F)(F)F)cc2)c2cccnc2)CC1 (centres undefined)	> 100000 nM
54.5 nM	18 nM	Fc1cccc(F)c1N1CCC(NC(c2ccc(C(F)(F)F)cc2)c2cccnc2)CC1 (centres undefined)	54200 nM
168 nM	69.5 nM	Cc1nnc(N2CCC(NC(c3ccc(C(F)(F)F)cc3)c3cccnc3)CC2)s1 (centres undefined)	> 100000 nM
240 nM	68.5 nM	Cc1ncsc1C(=O)N1CCC(NC(c2ccc(C(F)(F)F)cc2)c2cncs2)CC1 (centres undefined)	> 100000 nM
280 nM	99.5 nM	Cn1cc(C(=O)N2CCC(NC(c3ccc(C(F)(F)F)cc3)c3cccnc3)CC2)c(C(F)(F)F)n1 (centres undefined)	77100 nM
150 nM	47.5 nM	Cc1cc(C(=O)N2CCC(NC(c3ccc(C(F)(F)F)cc3)c3cccnc3)CC2)n(C(C)(C)C)n1 (centres undefined)	71700 nM
31 nM	18 nM	Cc1nc(C)c(C(=O)NC2CCN(C(c3ccc(C(F)(F)F)cc3)c3cccnc3)CC2)s1 (centres undefined)	55700 nM
655 nM	384 nM	Cn1cc(C(=O)N2CCC(NC(c3ccc(C(F)(F)F)cc3)c3cccnc3)CC2)cn1 (centres undefined)	> 100000 nM
